Test results taken from the supplement of paper PMC11061612.

What was measured:
Experiment in all cases: combination Emax (second highest fraction inhibited in the dose matrix, 72 h); higher = more inhibition; extreme values may be limits of the assay
[1] = system: RKN (Other Solid Carcinomas)
Method in brief: (§1)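 Bliss excess equals the observed combination effect minus the expected value EA + EB − EA·EB, where EA and EB are the effects of each agent alone. Combination Emax is the second-highest inhibition within the matrix. Inhibition was scaled from CellTiter-Glo 2.0 luminescence, with 0 set by vehicle wells and 1 by blank wells, after 72 hours of two-drug dosing of cells plated in 1536-well plates.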

[2] = system: KE-37 (T-Lymphoblastic Leukemia)
Method in brief: as §1

[3] = system: LN-229 (Glioblastoma)
Method in brief: as §1

[4] = system: OAW-42 (Ovarian Carcinoma)
Method in brief: as §1

[5] = system: WM793B (Melanoma)
Method in brief: as §1

[6] = system: GP5d (Colorectal Carcinoma)
Method in brief: as §1

[7] = system: HSC-39 (Gastric Carcinoma)
Method in brief: as §1

[8] = system: SK-PN-DW (Other Solid Carcinomas)
Method in brief: as §1

[9] = system: HCT-15 (Colorectal Carcinoma)
Method in brief: as §1

[10] = system: LB996-RCC (Kidney Carcinoma)
Method in brief: as §1

[11] = system: 23132-87 (Gastric Carcinoma)
Method in brief: as §1

[12] = system: RCM-1 (Colorectal Carcinoma)
Method in brief: as §1

[13] = system: LXF-289 (Lung Adenocarcinoma)
Method in brief: as §1

[14] = system: LK-2 (Squamous Cell Lung Carcinoma)
Method in brief: as §1

[15] = system: CAL-120 (Breast Carcinoma)
Method in brief: as §1

[16] = system: A2058 (Melanoma)
Method in brief: as §1

[17] = system: SF268 (Low Grade Glioma)
Method in brief: as §1

[18] = system: RERF-GC-1B (Gastric Carcinoma)
Method in brief: as §1

[19] = system: CAL-62 (Thyroid Gland Carcinoma)
Method in brief: as §1

[20] = system: TE-8 (Esophageal Squamous Cell Carcinoma)
Method in brief: as §1

| SMILES | combination Emax [1] | combination Emax [2] | combination Emax [3] | combination Emax [4] | combination Emax [5] | combination Emax [6] | combination Emax [7] | combination Emax [8] | combination Emax [9] | combination Emax [10] | combination Emax [11] | combination Emax [12] | combination Emax [13] | combination Emax [14] | combination Emax [15] | combination Emax [16] | combination Emax [17] | combination Emax [18] | combination Emax [19] | combination Emax [20] |
| --- | --- | --- | --- | --- | --- | --- | --- | --- | --- | --- | --- | --- | --- | --- | --- | --- | --- | --- | --- | --- |
| CN(C)CCCOc1ccc(-c2ccc3ncc4c(c3c2)n(C2CCOCC2)c(=O)n4C)cn1 [AZD0156] + O=C(c1cc(Cc2n[nH]c(=O)c3ccccc23)ccc1F)N1CCN(C(=O)C2CC2)CC1 [Olaparib] (first compound max 3 µM, partner max 3 µM) | 0.214 | 0.415 | 0.107 | 0.282 | 0.197 | 0.297 | 0.413 | 0.289 | 0.378 | 0.38 | 0.644 | 0.287 | 0.4 | 0.372 | 0.29 | 0.37 | 0.21 | 0.317 | 0.342 |  |
| CN(CCO)CC[C@H](CSc1ccccc1)Nc1ccc(S(=O)(=O)NC(=O)c2ccc(N3CCC([C@@H](O)c4ccccc4-c4ccc(Cl)cc4)CC3)cc2)cc1S(=O)(=O)C(F)(F)F [AZD4320] + C=CCn1c(=O)c2cnc(Nc3ccc(N4CCN(C)CC4)cc3)nc2n1-c1cccc(C(C)(C)O)n1 [AZD1775] (first compound max 1 µM, partner max 1 µM) | 0.315 | 1 | 0.428 | 0.496 | 0.622 | 0.782 | 0.958 | 0.898 | 0.456 | 0.978 | 0.846 | 0.717 | 0.638 | 0.992 | 0.854 | 0.355 | 0.587 | 0.962 | 0.878 | 0.932 |
| CN(CCO)CC[C@H](CSc1ccccc1)Nc1ccc(S(=O)(=O)NC(=O)c2ccc(N3CCC([C@@H](O)c4ccccc4-c4ccc(Cl)cc4)CC3)cc2)cc1S(=O)(=O)C(F)(F)F [AZD4320] + CCN(CCO)CCCOc1ccc2c(Nc3cc(CC(=O)Nc4cccc(F)c4)[nH]n3)ncnc2c1 [AZD2811] (first compound max 1 µM, 7x7, partner max 1 µM) |  | 1 | 0.185 | 0.14 | 0.246 | 0.566 | 0.966 | 0.719 | 0.135 | 0.485 | 0.258 | 0.545 | 0.471 | 0.967 | 0.829 | 0.47 | 0.519 | 0.568 | 0.488 | 0.583 |
| CN(CCO)CC[C@H](CSc1ccccc1)Nc1ccc(S(=O)(=O)NC(=O)c2ccc(N3CCC([C@@H](O)c4ccccc4-c4ccc(Cl)cc4)CC3)cc2)cc1S(=O)(=O)C(F)(F)F [AZD4320] + CN(C)CCCOc1ccc(-c2ccc3ncc4c(c3c2)n(C2CCOCC2)c(=O)n4C)cn1 [AZD0156] (first compound max 1 µM, 7x7, partner max 1 µM) | 0.102 | 1 | 0.142 | 0.261 | 0.251 | 0.323 | 0.279 | 0.326 | 0.111 | 0.227 | 0.148 | 0.435 | 0.182 | 0.712 | 0.744 | 0.103 | 0.291 | 0.379 | 0.228 | 0.181 |
| CN(CCO)CC[C@H](CSc1ccccc1)Nc1ccc(S(=O)(=O)NC(=O)c2ccc(N3CCC([C@@H](O)c4ccccc4-c4ccc(Cl)cc4)CC3)cc2)cc1S(=O)(=O)C(F)(F)F [AZD4320] + C[C@@H]1COCCN1C2=NC(=NC(=C2)C3(CC3)[S@](=N)(=O)C)C4=C5C=CNC5=NC=C4 [AZD6738] (first compound max 1 µM, 7x7, partner max 10 µM) | 0.242 | 1 | 0.797 | 0.748 | 0.844 | 0.859 | 1 | 0.947 | 0.756 | 0.837 | 0.84 | 0.862 | 0.689 | 0.769 | 0.757 | 0.782 | 0.78 | 0.621 | 0.936 | 0.799 |
| CN(CCO)CC[C@H](CSc1ccccc1)Nc1ccc(S(=O)(=O)NC(=O)c2ccc(N3CCC([C@@H](O)c4ccccc4-c4ccc(Cl)cc4)CC3)cc2)cc1S(=O)(=O)C(F)(F)F [AZD4320] + C[C@@H](Nc1cc(F)cc(F)c1)c1cc(C(=O)N(C)C)cc2c(=O)cc(N3CCOCC3)oc12 [AZD8186] (first compound max 1 µM, 7x7, partner max 3 µM) | 0.314 | 1 | 0.389 | 0.414 | 0.531 | 0.644 | 0.62 | 0.757 | 0.187 | 0.654 | 0.74 | 0.532 | 0.348 | 0.794 | 0.735 | 0.765 | 0.66 | 0.549 | 0.925 | 0.463 |
| CN(CCO)CC[C@H](CSc1ccccc1)Nc1ccc(S(=O)(=O)NC(=O)c2ccc(N3CCC([C@@H](O)c4ccccc4-c4ccc(Cl)cc4)CC3)cc2)cc1S(=O)(=O)C(F)(F)F [AZD4320] + Cc1cc2ncnn2cc1Nc1ncc2c(n1)n(C1CCOCC1)c(=O)n2C [AZD7648] (first compound max 1 µM, 7x7, partner max 10 µM) | 0.135 | 1 | 0.0793 | 0.348 | 0.221 | 0.295 | 0.367 | 0.413 | 0.135 | 0.321 | 0.2 | 0.351 | 0.216 | 0.746 | 0.748 | 0.0867 | 0.164 | 0.344 | 0.26 | 0.193 |
| CN(CCO)CC[C@H](CSc1ccccc1)Nc1ccc(S(=O)(=O)NC(=O)c2ccc(N3CCC([C@@H](O)c4ccccc4-c4ccc(Cl)cc4)CC3)cc2)cc1S(=O)(=O)C(F)(F)F [AZD4320] + Cn1cnc2c(F)c(Nc3ccc(Br)cc3Cl)c(C(=O)NOCCO)cc21 [Selumetinib] (first compound max 1 µM, 7x7, partner max 3 µM) | 0.326 | 1 | 0.397 | 0.436 | 0.578 | 0.9 | 0.57 | 0.684 | 0.284 | 0.513 | 0.615 | 0.785 | 0.314 | 0.699 | 0.8 | 0.76 | 0.69 | 0.716 |  | 0.502 |
| COc1nnc2ccc(N3CCC(c4ccc(OCCN5CCN(C)C(=O)[C@H]5C)cc4)CC3)nn12 [AZD5153] + C=CCn1c(=O)c2cnc(Nc3ccc(N4CCN(C)CC4)cc3)nc2n1-c1cccc(C(C)(C)O)n1 [AZD1775] (first compound max 1 µM, partner max 1 µM) | 0.527 | 0.978 | 0.431 | 0.615 | 0.636 | 0.848 | 0.967 | 0.762 | 0.739 | 0.835 | 0.636 | 0.667 | 0.813 | 0.929 | 0.489 | 0.8 | 0.637 | 0.77 | 0.79 | 0.654 |
| COc1nnc2ccc(N3CCC(c4ccc(OCCN5CCN(C)C(=O)[C@H]5C)cc4)CC3)nn12 [AZD5153] + CC1(C)CCC(CN2CCN(c3ccc(C(=O)NS(=O)(=O)c4ccc(NCC5CCOCC5)c([N+](=O)[O-])c4)c(Oc4cnc5[nH]ccc5c4)c3)CC2)=C(c2ccc(Cl)cc2)C1 [Venetoclax] (first compound max 1 µM, 7x7, partner max 1 µM) | 0.485 | 0.7 | 0.309 | 0.35 | 0.523 | 0.682 | 0.676 | 0.482 | 0.724 | 0.473 | 0.141 | 0.557 | 0.646 | 0.396 | 0.336 | 0.432 | 0.462 | 0.702 | 0.753 | 0.491 |
| COc1nnc2ccc(N3CCC(c4ccc(OCCN5CCN(C)C(=O)[C@H]5C)cc4)CC3)nn12 [AZD5153] + CN(CC[C@H](CSC1=CC=CC=C1)NC2=C(C=C(C=C2)S(=O)(=O)NC(=O)C3=CC=C(C=C3)N4CCC(CC4)[C@H](C5=CC=CC=C5C6=CC=C(C=C6)Cl)O)S(=O)(=O)C(F)(F)F)CCO [AZD4320] (first compound max 1 µM, 7x7, partner max 1 µM) |  | 1 | 0.335 | 0.41 | 0.508 | 0.727 |  |  | 0.81 | 0.539 | 0.349 |  | 0.667 |  | 0.919 | 0.577 | 0.552 | 0.813 |  |  |
| CC(=O)c1c(C)c2cnc(Nc3ccc(N4CCNCC4)cn3)nc2n(C2CCCC2)c1=O [Palbociclib] + CN(CC[C@H](CSC1=CC=CC=C1)NC2=C(C=C(C=C2)S(=O)(=O)NC(=O)C3=CC=C(C=C3)N4CCC(CC4)[C@H](C5=CC=CC=C5C6=CC=C(C=C6)Cl)O)S(=O)(=O)C(F)(F)F)CCO [AZD4320] (first compound max 10 µM, 7x7, partner max 1 µM) |  | 1 | 0.126 | 0.562 | 0.474 | 0.592 |  |  | 0.726 | 0.729 | 0.578 |  | 0.449 |  | 0.815 | 0.323 | 0.35 | 0.35 |  |  |
